{"source": "paper PMC11053168", "about": "“Agonist-selective activation of individual G-proteins by muscarinic receptors” (Scientific Reports, 2024)", "key": {"[1]": {"biological_target": "T1, M4 muscarinic receptor (Homo sapiens, UniProt P08173)", "T1 construct": "membranes", "T1 sequence (P08173 1-479)": "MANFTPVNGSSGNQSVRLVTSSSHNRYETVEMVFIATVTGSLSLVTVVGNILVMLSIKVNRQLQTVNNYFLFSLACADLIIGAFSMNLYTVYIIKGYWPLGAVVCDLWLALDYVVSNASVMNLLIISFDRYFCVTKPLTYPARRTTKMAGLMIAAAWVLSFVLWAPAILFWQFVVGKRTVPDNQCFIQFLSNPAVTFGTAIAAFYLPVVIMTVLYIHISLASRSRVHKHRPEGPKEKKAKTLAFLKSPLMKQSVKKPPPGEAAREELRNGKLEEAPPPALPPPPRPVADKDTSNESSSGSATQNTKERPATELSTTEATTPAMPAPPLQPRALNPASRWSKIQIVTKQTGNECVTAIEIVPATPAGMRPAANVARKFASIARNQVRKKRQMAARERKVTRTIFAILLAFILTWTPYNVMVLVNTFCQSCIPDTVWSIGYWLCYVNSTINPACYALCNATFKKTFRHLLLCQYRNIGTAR", "test": "[3H]NMS competition binding, membranes from CHO cells expressing M4", "description": "Cells were cultured as described previously by Randakova et al.[33]. […] The medium was supplemented with 5 mM butyrate for the last 24 h of culture to increase receptor expression. Cells were washed with (phosphate-buffered saline (PBS), mechanically harvested by scraper and centrifugated 1000 × g for 5 min. Cell pellets were kept at − 80 °C.\nMembranes were prepared as described previously by Randakova et al.[33]. Cells harvested from twenty 100 mm petri dishes (CHO) or 30 ml of cell suspension (Sf9) were suspended in 20 ml of ice-cold incubation medium (100 mM NaCl, 20 mM Na-HEPES, 10 mM MgCl2, pH 7.4) supplemented with 10 mM EDTA and homogenized on ice by two 30‐s strokes using a Polytron homogenizer (Ultra-Turrax; Janke & Kunkel GmbH & Co. KG, IKA-Labortechnik, Staufen, Germany) with a 30 s pause between strokes. Cell homogenates were centrifuged for 5 min at 1000×g to remove whole cells and cell nuclei. The resulting supernatants were centrifuged for 30 min at 30,000×g. Pellets were suspended in a fresh incubation medium, incubated on ice for 30 min, and centrifuged again. The resulting membrane pellets were kept at − 80 °C until assayed within 10 weeks.\nNon-specific binding was determined in the presence of 10 μM unlabelled atropine. Incubations were terminated by filtration through filtration plates multiscreen 96 well Harvest (Merck Millipore) using a Brandel cell harvester (Brandel, Gaithersburg, MD, USA). Filtration plates were dried in a microwave oven, and then 40 μl of liquid scintillator Rotiscint eco plus (Roth) was added. The filtration plates were counted in the Microbeta scintillation counter (PerkinElmer). […] The inhibition constant KI was calculated according to Eq. (2).\nInhibition constants KI were calculated according to Eq. (2).2 KI=IC50/1+D/KD where IC50 is calculated according to Eq."}, "[2]": {"biological_target": "individual subtypes of muscarinic receptors (M1–M5)", "parameters": "method as in PMID 31910288", "details": "summary of Table 1 over subtypes; read-out: Affinity; cited from earlier work"}, "[3]": {"biological_target": "T2, M1 receptor (Homo sapiens, UniProt P11229)", "T2 sequence (P11229 1-460)": "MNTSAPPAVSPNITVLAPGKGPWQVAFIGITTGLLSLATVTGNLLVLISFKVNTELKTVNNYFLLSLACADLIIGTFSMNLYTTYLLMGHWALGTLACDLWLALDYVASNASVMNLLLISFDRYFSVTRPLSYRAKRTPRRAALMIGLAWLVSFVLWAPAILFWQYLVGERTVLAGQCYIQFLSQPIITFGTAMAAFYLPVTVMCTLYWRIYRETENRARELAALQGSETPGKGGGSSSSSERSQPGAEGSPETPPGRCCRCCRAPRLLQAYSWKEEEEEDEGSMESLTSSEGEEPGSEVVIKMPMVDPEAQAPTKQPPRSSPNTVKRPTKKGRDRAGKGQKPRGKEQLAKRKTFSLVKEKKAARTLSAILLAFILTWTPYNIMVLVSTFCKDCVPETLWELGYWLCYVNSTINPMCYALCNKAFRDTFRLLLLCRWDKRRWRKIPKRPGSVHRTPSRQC", "parameters": "expressed in transfected cells; method as in PMID 31910288", "details": "CHO expressing M1; cited from earlier work"}, "[4]": {"biological_target": "M3 receptor (Homo sapiens, UniProt P20309)", "sequence (P20309 whole entry)": "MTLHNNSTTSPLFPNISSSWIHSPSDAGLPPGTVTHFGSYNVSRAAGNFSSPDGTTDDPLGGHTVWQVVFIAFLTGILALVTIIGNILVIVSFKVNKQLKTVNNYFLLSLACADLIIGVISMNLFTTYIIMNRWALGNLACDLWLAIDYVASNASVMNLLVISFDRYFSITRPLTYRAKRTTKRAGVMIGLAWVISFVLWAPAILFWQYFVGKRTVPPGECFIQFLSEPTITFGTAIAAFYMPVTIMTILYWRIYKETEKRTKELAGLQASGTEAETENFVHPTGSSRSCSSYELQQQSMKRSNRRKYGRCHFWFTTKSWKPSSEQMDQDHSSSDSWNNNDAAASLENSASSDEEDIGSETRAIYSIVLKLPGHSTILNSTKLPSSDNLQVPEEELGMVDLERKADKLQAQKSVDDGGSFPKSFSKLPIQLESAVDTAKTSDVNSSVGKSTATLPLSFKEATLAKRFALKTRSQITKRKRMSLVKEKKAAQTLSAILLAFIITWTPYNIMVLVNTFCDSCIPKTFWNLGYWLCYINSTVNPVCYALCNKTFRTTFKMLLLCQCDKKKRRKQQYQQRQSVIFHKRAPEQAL", "parameters": "expressed in transfected cells; method as in PMID 31910288", "details": "CHO expressing M3; cited from earlier work"}, "[5]": {"tested_on": "individual subtypes of muscarinic receptors (M1–M5)", "test": "[3H]NMS competition binding, summary over subtypes", "parameters": "species or system human", "details": "summary of Table 1 over subtypes", "description": "CHO cells stably transfected with the genes of individual subtypes of human muscarinic receptors (M1–M5, wild types) were purchased from Missouri S&T cDNA resource center (Rolla, MO, USA) (https://www.cdna.org/home.php?cat=177). Cells were cultured as described previously by Randakova et al.[33]. Cells were grown to confluence in 75 cm^2 flasks in Dulbecco’s modified Eagle’s medium DMEM (Thermo Fisher Scientific; LOT: 2556745) supplemented with 10% fetal bovine serum and geneticin in concentration 50 µg/ml at 37 °C in a humidified incubator containing 5% CO2. The medium was supplemented with 5 mM butyrate for the last 24 h of culture to increase receptor expression. Cells were washed with (phosphate-buffered saline (PBS), mechanically harvested by scraper and centrifugated 1000 × g for 5 min. Cell pellets were kept at − 80 °C.\nMembranes were prepared as described previously by Randakova et al.[33]. […]\nNon-specific binding was determined in the presence of 10 μM unlabelled atropine. […] The filtration plates were counted in the Microbeta scintillation counter (PerkinElmer). […] The inhibition constant KI was calculated according to Eq. (2). […]"}}, "note": "Like-named read-outs stand apart in the source and are kept apart here.", "data": [{"molecule": "c1csc(C[N+]23CCC(CC2)CC3)c1", "note": "[JB-8A]", "values": [{"measurement": "Ki", "setting": "[1]", "result": 4.57, "unit": "µM"}]}, {"molecule": "C[N+]1(Cc2cccs2)CCOCC1", "note": "[JB-12-2]", "values": [{"measurement": "Ki", "setting": "[1]", "result": 17, "unit": "µM"}]}, {"molecule": "COC(=O)C1=CCCN(Cc2cccs2)C1", "note": "[JB-13-1]", "values": [{"measurement": "Ki", "setting": "[1]; M4, competition with [3H]NMS, mean ± SD, three experiments, read-out: Binding affinity, negative logarithm of Ki (converted)", "result": 77.6, "unit": "µM"}]}, {"molecule": "C[N+]1(Cc2cccs2)CC=CCC1", "note": "(stereo not shown) [JR-6, 1-methyl-1-[(thiophen-2-yl)methyl]-1,2,3,6-tetra hydropyridin-1-ium]", "values": [{"measurement": "Ki", "setting": "[2]", "result": "~10", "unit": "µM"}, {"measurement": "IP production", "setting": "[3]", "result": "weak IP production"}, {"measurement": "IP production", "setting": "[4]", "result": "marginal response"}]}, {"molecule": "C[N+]1(Cc2ccc(Cl)s2)CC=CCC1", "note": "(stereo not shown) [PN-152, 1-[(5-chlorothiophen-2-yl)methyl]-1-methyl-1,2,3,6-tetrahydropyridin-1-ium]", "values": [{"measurement": "Affinity, times higher than JR-6", "setting": "[5]", "result": "three to ten"}]}]}
